Laboratory results as given in the supplement of paper PMC4862054.

Assays:
[1] = tested on: MDA-MB-468; settings: 72 h
Experimental: (§1)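 Drug sensitivity and resistance testing (DSRT) of breast cancer cell lines in 384-well plates, 5 concentrations in 10-fold dilutions over a compound-specific 10,000-fold range. After 72 h, cytotoxicity was read by CellTox Green fluorescence and viability by CellTiter-Glo luminescence (multiplexed), normalised to DMSO and benzethonium chloride controls. EC50 is the inflection point of the fitted dose-response curve (bottom asymptote free, so it can be relative for partial curves) and is censored at the highest tested concentration. Rows with DSS 0 (no meaningful response) were excluded.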

[2] = tested on: CAL-51; settings: 72 h
Experimental: as §1

[3] = tested on: Hs578T; experiment: normalised response (% of control), CellTiter-Glo; higher = more viable cells (100 = DMSO, 0 = benzethonium chloride kill control); settings: incubation time: 72 h
Outline: (§2)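 After 72 h with compound in 384-well plates, breast cancer cell lines seeded as 20 µl suspension were read for CellTox Green fluorescence at 485/520 nm. CellTiter-Glo luminescence was then read after 10 min at room temperature. Compound was present at 5 concentrations in 10-fold steps over a 10,000-fold range set per compound, and plates were normalised to 0.1 % DMSO (100) and a positive kill control (0). Values are normalised signals, each at a single concentration.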

[4] = tested on: CAL-148; experiment: as above; settings: incubation time: 72 h
Outline: as §2

[5] = tested on: CAL-85-1; experiment: as above; settings: incubation time: 72 h
Outline: as §2

[6] = tested on: HCC1937; experiment: as above; settings: incubation time: 72 h
Outline: as §2

[7] = tested on: HCC1143; experiment: as above; settings: incubation time: 72 h
Outline: as §2

[8] = tested on: MDA-MB-453; experiment: as above; settings: incubation time: 72 h
Outline: as §2

[9] = tested on: MCF-10A; experiment: as above; settings: incubation time: 72 h
Outline: as §2

[10] = tested on: HDQ-P1; experiment: as above; settings: incubation time: 72 h
Outline: as §2

[11] = tested on: MDA-MB-231; experiment: as above; settings: incubation time: 72 h
Outline: as §2

[12] = tested on: BT-549; settings: 72 h
Experimental: as §1

[13] = tested on: HCC1937; settings: 72 h
Outline: (§3)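 Breast cancer cell lines in 20 µl suspension were seeded onto 384-well plates pre-loaded with compound dissolved in 5 µl medium, then incubated 72 h. For viability, 2.5 µl CellTiter-Blue was added for 2 h at 37 °C and fluorescence read at 560/590 nm. Each plate was normalised to vehicle and a positive kill control and checked by Z'-factor. EC50 comes from the fitted percent-inhibition dose-response curve, censored at the highest concentration; rows with zero drug sensitivity score were dropped.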

[14] = tested on: MDA-MB-436; settings: 72 h
Outline: as §3

[15] = tested on: BT-549; settings: 72 h; remark: listed apart in the source
Outline: as §3

[16] = tested on: HCC1143; settings: 72 h
Outline: as §3

[17] = tested on: MFM-223; settings: 72 h
Outline: as §3

[18] = tested on: MDA-MB-468; settings: 72 h; remark: listed apart in the source
Outline: as §3

[19] = tested on: MDA-MB-231; settings: 72 h
Outline: as §3

[20] = tested on: HDQ-P1; settings: 72 h
Outline: as §3

[21] = tested on: CAL-85-1; settings: 72 h
Experimental: as §1

[22] = tested on: HDQ-P1; settings: 72 h; remark: listed apart in the source
Experimental: as §1

[23] = tested on: BT-474; settings: 72 h
Experimental: as §1

[24] = tested on: MDA-MB-231; settings: 72 h; remark: listed apart in the source
Experimental: as §1

| Compound | normalised response [3] [%] | normalised response [4] [%] | normalised response [5] [%] | normalised response [6] [%] | normalised response [7] [%] | normalised response [8] [%] | normalised response [9] [%] | normalised response [10] [%] | normalised response [11] [%] | other results |
| --- | --- | --- | --- | --- | --- | --- | --- | --- | --- | --- |
| CN(C)C(=N)NC(=N)N [Metformin] |  |  |  |  |  |  |  |  |  | EC50, CellTox Green [1]: 710 nM; EC50, CellTox Green [2]: 100 nM |
| CC(=O)[C@]1(O)Cc2c(O)c3c(c(O)c2[C@@H](O[C@H]2C[C@H](N)[C@H](O)[C@H](C)O2)C1)C(=O)c1ccccc1C3=O [Idarubicin] (1000 nM) | 13.1 | 0.6 | 3.35 | 30.1 | 16.6 | 31.2 | 27.3 | 39 | 24.7 |  |
| CCNC(=O)CCC/C=C\C[C@@H]1[C@@H](/C=C/[C@@H](O)CCc2ccccc2)[C@H](O)C[C@@H]1O [Bimatoprost] (5500 nM) | 101 | 88.3 | 91.1 | 91.9 | 94.8 | 91.2 | 90.3 | 91.7 | 99.5 |  |
| CC(C)(C)NC(=O)[C@H]1CC[C@H]2[C@@H]3CC[C@H]4NC(=O)C=C[C@]4(C)[C@H]3CC[C@]12C [Finasteride] (10000 nM) | 99.9 | 105 | 96.5 | 97.8 | 96.6 | 93.4 | 110 | 95.7 | 102 |  |
| CC(C)C[C@H](NC(=O)[C@@H](COC(C)(C)C)NC(=O)[C@H](Cc1ccc(O)cc1)NC(=O)[C@H](CO)NC(=O)[C@H](Cc1c[nH]c2ccccc12)NC(=O)[C@H](Cc1cnc[nH]1)NC(=O)[C@@H]1CCC(=O)N1)C(=O)N[C@@H](CCCNC(=N)N)C(=O)N1CCC[C@H]1C(=O)NNC(N)=O [Goserelin] (10000 nM) | 96.5 | 91.2 | 93.8 | 96 | 101 | 101 | 100 | 101 | 101 |  |
| CO[C@@]12[C@H](COC(N)=O)C3=C(C(=O)C(C)=C(N)C3=O)N1C[C@@H]1N[C@@H]12 [Mitomycin C] (10000 nM) | 91.1 | 51 | 57 | 73.3 | 71 | 85.8 | 73 | 84.1 | 82.5 |  |
| O=C(O)CNC(=O)c1c(O)c2ccccc2n(Cc2ccccc2)c1=O [IOX-2] |  |  |  |  |  |  |  |  |  | EC50, CellTox Green [12]: 1170 nM |
| CNC(=O)c1ccccc1Sc1ccc2c(/C=C/c3ccccn3)n[nH]c2c1 [Axitinib] |  |  |  |  |  |  |  |  |  | EC50, CellTiter-Blue viability [13]: 1370 nM; EC50, CellTiter-Blue viability [14]: 91.7 nM; EC50, CellTiter-Blue viability [15]: 2180 nM; EC50, CellTiter-Blue viability [16]: 2570 nM; EC50, CellTiter-Blue viability [17]: 163 nM; EC50, CellTiter-Blue viability [18]: 6660 nM; EC50, CellTiter-Blue viability [19]: 1170 nM; EC50, CellTox Green [2]: 1180 nM; EC50, CellTiter-Blue viability [20]: 474 nM |
| COc1cc(Nc2c(C#N)cnc3cc(OCCCN4CCN(C)CC4)c(OC)cc23)c(Cl)cc1Cl [Bosutinib] (10000 nM) | 48.5 | 33.3 | 0.33 | 5.6 | 46.6 | 6.11 | 1.72 | 9.28 | 0.86 |  |
| Cn1cc(C2=C(c3cn(C4CCN(Cc5ccccn5)CC4)c4ccccc34)C(=O)NC2=O)c2ccccc21 [Enzastaurin] (10000 nM) | 91 | 107 | 85.1 | 101 | 96.5 | 101 | 87.5 | 70.1 | 102 |  |
| COc1ccc(S(=O)(=O)Nc2cccnc2Nc2ccc(O)cc2)cc1 [ABT-751] (10000 nM) | 17.6 | 41.2 | 40.9 | 71.3 | 55.5 | 50.9 | 59.8 | 70.1 | 46.6 |  |
| O=C(CCCCCCC(=O)Nc1ccccc1)NO [Vorinostat] (10000 nM) | 34 | 29.6 | 44.2 | 43.6 | 24.4 | 3.2 | 43.3 | 64.3 | 15 |  |
| CC(O)(CS(=O)(=O)c1ccc(F)cc1)C(=O)Nc1ccc(C#N)c(C(F)(F)F)c1 (configuration not stated) [Bicalutamide] (10000 nM) | 95.6 | 107 | 101 | 93.8 | 104 | 88.5 | 107 | 96.4 | 106 |  |
| CN[C@@H](C)C(=O)N[C@H]1CN(C(=O)CC(C)C)CC[C@H]2CC[C@@H](C(=O)NC(c3ccccc3)c3ccccc3)N2C1=O [AT-406] |  |  |  |  |  |  |  |  |  | EC50, CellTox Green [21]: 75.9 nM; EC50, CellTox Green [12]: 18.9 nM; EC50, CellTox Green [22]: 5140 nM; EC50, CellTox Green [23]: > 10000 nM; EC50, CellTox Green [24]: 81.2 nM |
